Measured values: the supplement of paper PMC10307832

Experiments:
Test in all cases: relative viability (nuclei count vs DMSO), 5 days (fraction); higher = more cells survive
[1] = compound: COc1cc(-c2nn([C@H]3CC[C@H](N4CCN(C(C)=O)CC4)CC3)c3ncnc(N)c23)ccc1NC(=O)c1cc2ccccc2n1C + CS(=O)(=O)N1CCN(Cc2cc3nc(-c4cccc5[nH]ncc45)nc(N4CCOCC4)c3s2)CC1 [Pictilisib] (partner 1 µM)
In short: (§1)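 Nuclei were stained with Hoechst during a one-step fixation (final 0.05% Triton X-100, 1% formaldehyde, 1 ug/ml Hoechst) carried out 5 days after dosing, then counted on 4× images. The cells, lung cancer lines in 1536-well plates, had been dosed by pin tool the day after seeding with one drug alone or a fixed anchor-drug dose plus five library-drug doses (not always all listed) in √10 steps. Relative viability is the nuclei count in treated wells divided by that in vehicle wells, and each value is the median of duplicate plates.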

[2] = compound: COc1cc(-c2nn([C@H]3CC[C@H](N4CCN(C(C)=O)CC4)CC3)c3ncnc(N)c23)ccc1NC(=O)c1cc2ccccc2n1C + CC1(C)CCC(c2ccc(Cl)cc2)=C(CN2CCN(c3ccc(C(=O)NS(=O)(=O)c4ccc(N[C@H](CCN5CCOCC5)CSc5ccccc5)c(S(=O)(=O)C(F)(F)F)c4)cc3)CC2)C1 [Navitoclax] (partner 0.5 µM)
In short: as §1

[3] = compound: COc1cc(-c2nn([C@H]3CC[C@H](N4CCN(C(C)=O)CC4)CC3)c3ncnc(N)c23)ccc1NC(=O)c1cc2ccccc2n1C + C[C@]1(O)C[C@@H](c2nc(-c3ccc4ccc(-c5ccccc5)nc4c3)c3c(N)nccn32)C1 [Linsitinib] (partner 1 µM)
In short: as §1

[4] = compound: CO[C@@H]1[C@H](N(C)C(=O)c2ccccc2)C[C@H]2O[C@]1(C)n1c3ccccc3c3c4c(c5c6ccccc6n2c5c31)C(=O)NC4 [Midostaurin] + O=C(CCCCCCC(=O)Nc1ccccc1)NO [Vorinostat] (partner 1 µM)
In short: as §1

[5] = compound: CO[C@@H]1[C@H](N(C)C(=O)c2ccccc2)C[C@H]2O[C@]1(C)n1c3ccccc3c3c4c(c5c6ccccc6n2c5c31)C(=O)NC4 [Midostaurin] + COc1cccc2cc(-c3nc([C@H]4CC[C@H](C(=O)O)CC4)n4ncnc(N)c34)[nH]c12 [OSI-027] (partner 0.5 µM)
In short: as §1

Cell Line | relative viability ([1]; first compound 0.0128 µM) | relative viability ([1]; first compound 0.04048 µM) | relative viability ([1]; first compound 0.128 µM) | relative viability ([1]; first compound 1.28 µM) | relative viability ([2]; first compound 0.0128 µM) | relative viability ([2]; first compound 0.04048 µM) | relative viability ([2]; first compound 0.128 µM) | relative viability ([2]; first compound 1.28 µM) | relative viability ([3]; first compound 0.0128 µM) | relative viability ([3]; first compound 0.04048 µM) | relative viability ([3]; first compound 0.128 µM) | relative viability ([3]; first compound 1.28 µM) | relative viability ([4]; first compound 0.01 µM) | relative viability ([4]; first compound 0.03162 µM) | relative viability ([4]; first compound 0.1 µM) | relative viability ([4]; first compound 0.3162 µM) | relative viability ([5]; first compound 0.01 µM) | relative viability ([5]; first compound 0.03162 µM) | relative viability ([5]; first compound 0.1 µM) | relative viability ([5]; first compound 0.3162 µM)
201T | 0.729 | 0.639 | 0.571 | 0.432 | 1.27 | 1.3 | 1.22 | 1.03 | 0.979 | 1.05 | 0.927 | 0.665 | 0.991 | 0.871 | 1.02 | 1.08 | 0.725 | 0.787 | 0.751 | 0.818
A549 | 0.538 | 0.63 | 0.429 | 0.501 | 1.22 | 1.22 | 1.17 | 1.15 | 0.552 | 0.666 | 0.619 | 0.465 |  |  |  |  |  |  |  | 
A-427 | 0.652 | 0.127 | 0.703 | 0.493 | 1.06 | 0.763 | 1.04 | 0.795 | 1.16 | 1.08 | 1.07 | 0.963 | 0.883 | 0.887 | 0.848 | 0.937 | 0.449 | 0.467 | 0.434 | 0.512
ABC-1 | 0.805 | 0.648 | 0.613 | 0.631 |  |  |  |  | 0.709 | 0.887 | 0.749 | 0.697 | 1.23 | 1.37 | 1.08 | 0.996 | 0.488 | 0.536 | 0.574 | 0.521
